{"source": "patent US20260139004A1", "about": "“PEPTIDE HAVING ACTIVITIES OF PROMOTING HAIR GROWTH AND INHIBITING HAIR LOSS, AND USES THEREOF” (CAREGEN CO., LTD., priority 2022, published 2026)", "key": {"[1]": {"test_system": "human hair follicle dermal papilla cells (HHFDPCs)", "assay": "Proliferation of human hair follicle dermal papilla cells (MTT)", "format": "cell-based", "conditions": "peptide at 500 nM, 5 μM and 50 μM, 72 hours, absorbance 540 nm, FIG. 1", "method": "The effect of the peptide prepared in Preparation Example 1 above on the proliferation of human hair follicle dermal papilla cells (HHFDPCs) was tested.\nHHFDPCs were seeded in a 96-well cell culture plate at a density of 4×10^3 cells/well and cultured for 24 hours under mesenchymal stem cell complete media conditions. Then, the medium was replaced with serum-free mesenchymal stem cell medium and cultured for additional 24 hours. The cultured cell culture was treated with the peptide prepared in Preparation Example 1 above at 500 nM, 5 μM, and 50 μM, respectively, treated with 1 μM VEGF to serve as a positive control, and not treated with anything to serve as a negative control (con), and these cultures were cultured at 37° C. for additional 72 hours. Thereafter, 10 μL of MTT solution (5 mg/mL) was added thereto, and the mixture was incubated in a CO2 incubator at 37° C. for 4 hours, the medium was removed, and 100 μL of DMSO was added thereto and shaken for 10 minutes. Finally, the absorbance was measured at a wavelength of 540 nm using a spectrophotometer (Molecular Devices (SpectraMax iD3, CA, USA))."}, "Akt": {"test_system": "Akt", "assay": "Western blot of phospho-AKT in HHFDPCs", "format": "cell-based, human", "conditions": "peptide at 500 nM, 5 μM and 50 μM, 24 hours, FIG. 2", "method": "(§1) The effect of the peptide prepared in Preparation Example 1 above on the activation of proliferation-related signaling molecules in human hair follicle dermal papilla cells (HHFDPCs) was confirmed by Western blot method.\n(§2) HHFDPCs were seeded in a 6-well cell culture plate at a density of 4×10^5 cells/well and cultured for 24 hours under mesenchymal stem cell complete media conditions. Then, the medium was replaced with serum-free mesenchymal stem cell medium and cultured for additional 24 hours. The cultured cell culture was treated with the peptide prepared in Preparation Example 1 above at 500 nM, 5 μM, and 50 μM, respectively, 1 μM of Minoxidil (MNX) and 1 μM of VEGF were treated to serve as a positive control, and not treated with anything to serve as a negative control (con), and the cultures treated with these materials were cultured at 37° C. for additional 24 hours. After washing each culture with PBS, the cells were lysed by treatment with lysis buffer to obtain a cell lysate. Equal amounts of protein samples were prepared by BCA quantification of cell lysates. The prepared protein samples were subjected to electrophoresis using 10% SDS-PAGE. […] The resultant was washed 3 times for 15 minutes each with 0.1% PBS-T (0.1% Tween-20 in PBS), treated with ECL solution (GE Healthcare, USA), and detected with a film."}, "[2]": {"test_system": "extracellular-regulated kinase (ERK)", "assay": "Western blot of phospho-ERK in HHFDPCs", "format": "cell-based, human", "conditions": "peptide at 500 nM, 5 μM and 50 μM, 24 hours, FIG. 2", "method": "as §1, §2"}, "beta-catenin": {"test_system": "beta-catenin", "assay": "Western blot of nuclear beta-catenin in HHFDPCs", "format": "cell-based, human", "conditions": "peptide at 500 nM, 5 μM and 50 μM, 24 hours, nuclear protein Western blot, FIG. 3", "method": "The effect of the peptide prepared in Preparation Example 1 above on the activation of beta-catenin in human hair follicle dermal papilla cells (HHFDPCs) was confirmed by Western blot method.\nHHFDPCs were seeded in a 6-well cell culture plate at a density of 4×10^5 cells/well and cultured for 24 hours under mesenchymal stem cell complete media conditions. Then, the medium was replaced with serum-free mesenchymal stem cell medium and cultured for additional 24 hours. The cultured cell culture was treated with the peptide prepared in Preparation Example 1 above at 500 nM, 5 μM, and 50 μM, respectively, and treated with 10 ng/mL of rhWnt-3a (recombinant human Wnt-3a protein, R&D systems (MN, USA) to serve as a positive control, and not treated with anything to serve as a negative control (con). The cultures treated with these materials were incubated at 37° C. for additional 24 hours. After washing each culture with PBS, nuclear proteins were isolated using a nuclear protein extraction kit (Thermo scientific, USA), and an equal amount of protein sample was prepared by BCA quantification. The prepared protein samples were subjected to electrophoresis using 10% SDS-PAGE. […] The resultant was washed 3 times for 15 minutes each with 0.1% PBS-T (0.1% Tween-20 in PBS), treated with ECL solution (GE Healthcare, USA), and detected with a film."}, "LEF-1": {"test_system": "LEF-1", "assay": "RT-PCR of LEF-1 gene expression in HHFDPCs", "format": "cell-based, human", "conditions": "peptide at 500 nM, 5 μM and 50 μM, 24 hours, FIG. 4", "method": "(§3) The effect of the peptide prepared in Preparation Example 1 above on the expression levels of lymphoid enhancer-binding factor 1 (LEF-1) and c-Myc, which are downstream genes of beta-catenin, in human hair follicle dermal papilla cells (HHFDPCs) was determined by the RT-PCR method.\n(§4) HHFDPCs were seeded in a 6-well cell culture plate at a density of 4×10^5 cells/well and cultured for 24 hours under mesenchymal stem cell complete media conditions. Then, the medium was replaced with serum free mesenchymal stem cell medium and cultured for additional 24 hours. The cultured cell culture was treated with the peptide prepared in Preparation Example 1 above at 500 nM, 5 μM, and 50 μM, respectively, and treated with 10 ng/mL of rhWnt-3a (recombinant human Wnt-3a protein, R&D systems (MN, USA) to serve as a positive control, and not treated with anything to serve as a negative control (con), and each was cultured at 37° C. for additional 24 hours. After washing each culture with PBS, RNA was isolated therefrom by treatment with 300 μL of eaay blue (Intron, South Korea). The isolated RNA was quantified using Nano drop, and then subjected to cDNA synthesis using a cDNA synthesis kit (Enzynomics, South Korea). […] The PCR reaction product was electrophoresed on a 1.5% agarose gel, and the bands were detected using the Bio-Rad Gel Image System."}, "c-Myc": {"test_system": "c-Myc", "assay": "RT-PCR of c-Myc gene expression in HHFDPCs", "format": "cell-based, human", "conditions": "peptide at 500 nM, 5 μM and 50 μM, 24 hours, FIG. 4", "method": "as §3, §4"}, "DKK-1": {"test_system": "DKK-1", "assay": "Western blot of DHT-induced DKK-1 in HHFDPCs", "format": "cell-based, human", "conditions": "peptide at 500 nM, 5 μM and 50 μM with 100 nM DHT, 24 hours, FIG. 5", "text": "It is known that in hair follicles, dihydrotestosterone (DHT) promotes the expression of Dickkopf-1 (DKK-1), and DKK-1 induced by DHT inhibits the proliferation of keratinocytes in hair follicles and causes their apoptosis, thereby promoting hair loss (J of Invest Dermatolo. 2008, February, 128(2), pp. 262-269.). The effect of the peptide prepared in Preparation Example 1 above on the expression level of the hair loss-inducing protein DKK-1 in human hair follicle dermal papilla cells (HHFDPCs) was confirmed by Western blot method.\nHHFDPCs were seeded in a 6-well cell culture plate at a density of 4×10^5 cells/well and cultured for 24 hours under mesenchymal stem cell complete media conditions. Then, the medium was replaced with serum-free mesenchymal stem cell medium and cultured for additional 24 hours. The cultured cell culture was treated with 500 nM, 5 μM, and 50 μM of the peptide prepared in Preparation Example 1 above, respectively. treated with 5 μM of finasteride to serve as a positive control, and not treated with anything to serve as a negative control group (con). […] Equal amounts of protein samples were prepared by BCA quantification of cell lysates. […] The resultant was washed 3 times for 15 minutes each with 0.1% PBS-T (0.1% Tween-20 in PBS), treated with ECL solution (GE Healthcare, USA), and detected with a film."}, "Ha3-II": {"test_system": "Ha3-II", "assay": "RT-PCR of Ha3-II gene expression in HHORSCs", "format": "cell-based, human", "conditions": "peptide at 500 nM, 5 μM and 50 μM, 24 hours, FIG. 6", "method": "(§5) The effect of the peptide prepared in Preparation Example 1 above on the activation of human hair outer root sheath cells (HHORSCs) was confirmed by measuring the expression of cytokeratin proteins.\n(§6) HHORSCs were seeded in a 96-well cell culture plate at a density of 4×10^3 cells/well and cultured for 24 hours under mesenchymal stem cell complete media conditions. Then, the medium was replaced with serum free mesenchymal stem cell medium and cultured for additional 24 hours. The cultured cell culture was treated with 500 nM, 5 μM, and 50 μM of the peptide prepared in Preparation Example 1 above, respectively, and treated with 100 nM of epidermal growth factor (EGF) as a positive control, and negative when not treated with anything to serve as a negative control (con), and these cultures were cultured at 37° C. for 24 hours. After washing each culture with PBS, RNA was isolated by treatment with 300 μL of eaay blue (Intron, South Korea). The isolated RNA was quantified using Nano drop, and then subjected to cDNA synthesis using a cDNA synthesis kit (Enzynomics, South Korea). Then, a PCR reaction was performed using the primers shown in Table 3 below and a PCR premix (Enzynomics, South Korea). The PCR reaction product was electrophoresed on a 1.5% agarose gel, and the bands were detected using the Bio-Rad Gel Image System."}, "Keratin 5": {"test_system": "Keratin 5", "assay": "RT-PCR of Keratin 5 gene expression in HHORSCs", "format": "cell-based, human", "conditions": "peptide at 500 nM, 5 μM and 50 μM, 24 hours, FIG. 6", "method": "as §5, §6"}, "Keratin 14": {"test_system": "Keratin 14", "assay": "RT-PCR of Keratin 14 gene expression in HHORSCs", "format": "cell-based, human", "conditions": "peptide at 500 nM, 5 μM and 50 μM, 24 hours, FIG. 6", "method": "as §5, §6"}, "Keratin 19": {"test_system": "Keratin 19", "assay": "RT-PCR of Keratin 19 gene expression in HHORSCs", "format": "cell-based, human", "conditions": "peptide at 500 nM, 5 μM and 50 μM, 24 hours, FIG. 6", "method": "as §5, §6"}}}
{"sequence": "LKRYKHLV (Leu-Lys-Arg-Tyr-Lys-His-Leu-Val) [peptide of Preparation Example 1]", "values": [{"measurement": "proliferation of HHFDPC compared to the negative control (con)", "setting": "[1]", "value": "promoted"}, {"measurement": "phosphorylation of Akt", "setting": "Akt", "value": "increased"}, {"measurement": "phosphorylation of extracellular-regulated kinase (ERK)", "setting": "[2]", "value": "increased"}, {"measurement": "beta-catenin activation and movement to the nucleus", "setting": "beta-catenin", "value": "increased"}, {"measurement": "gene expression of LEF-1", "setting": "LEF-1", "value": "increased"}, {"measurement": "gene expression of c-Myc", "setting": "c-Myc", "value": "increased"}, {"measurement": "expression of DKK-1 induced by DHT treatment", "setting": "DKK-1", "value": "reduced in a concentration-dependent manner"}, {"measurement": "gene expression of Ha3-II", "setting": "Ha3-II", "value": "increasing"}, {"measurement": "gene expression of Keratin 5", "setting": "Keratin 5", "value": "increasing"}, {"measurement": "gene expression of Keratin 14", "setting": "Keratin 14", "value": "increasing"}, {"measurement": "gene expression of Keratin 19", "setting": "Keratin 19", "value": "increasing"}]}
